Laboratory results as given in patent publication US12233177B2, “Method for external sterilization of drug delivery device” (AMGEN INC., priority 2019, dated 2025).

Test system: Geobacillus stearothermophilus
Assay: Lethality study of NO2 external sterilization on spiked pre-filled syringes
Assay type: cell-based
Method: At least some of the backstops illustrated in the figures were tested in a lethality study. For example, pre-filled syringes were “spiked” with between 1×10^6 and 6×10^6 CFU (e.g., between 1,000,000 and 6,000,000 CFU) of Geobacillus stearothermophilus before sterilization cycles. As a more specific example, the backstop and barrel portions of the prefilled syringes were spiked with the 1-6×10^6 CFU of Geobacillus stearothermophilus. As used herein, the term “CFU” refers to “Colony-Forming Unit”, which is a unit used to estimate the number of viable bacteria or fungal cells in a sample (where “viable” is the ability to multiply via binary fission under controlled conditions). Geobacillus stearothermophilus (previously Bacillus stearothermophilus) is a rod-shaped, gram-positive bacterium and a member of the division Firmicutes. The bacterium is a thermophile and is widely distributed in soil, hot springs, ocean sediment, and is a potential cause of spoilage in food products. The spiked pre-filled syringes were then sterilized using various sterilization parameters to measure the lethality of the sterilization process to evaluate the Sterility Assurance Level (SAL). The pre-filled syringes were spiked with biological indicators or direct inoculation, as is discussed in more detail below.
For each recipe number, five samples (or at least 5 test locations on one or more samples) were tested. […] For example, the target lethality for this test was a Sterility Assurance Level (SAL) of […]. In other words, the target lethality for this test was 6 logs reduction in the number of bacteria present (before sterilization vs. after sterilization). As a more specific example, for Recipe Number 1, one of the five samples tested reached this target lethality for the backstop area (Col. “Spiked Backstop”, row corresponding with Recipe Number 1), but all five of the samples tested reached this target lethality for the barrel area (Col. “Spiked Barrel”, row corresponding with Recipe Number 1). It should be noted that the spiked backstop test results for Recipe Nos. 1-4 (utilizing the backstop 20 shown in FIGS. 2A-2H) were tested via direct inoculation whereas the spiked backstop test results for Recipe Nos. 5-14 (utilizing alternative backstop 120) were tested via biological indicators. It also should be noted that “-” symbols indicate that no data is reported for those parameters/samples. The testing method variance aside, the samples tested utilizing backstops with protrusions achieved target lethality at a much higher rate than the samples utilizing the backstop without protrusions. As discussed above, the ridges minimize and/or prevent occluded spaces and instead permit the sterilization agent to completely or substantially reach various components of the pre-filled syringe, particularly the backstop and flange areas.

## [O]N=O [NO2, Nitrogen Dioxide]
Recipe 1: 100 Torr, NO2 10 mg/L, 75% RH, dwell 10 min, 2 pulses, 24 aerations, PFS with backstop 20
  Spiked Barrel: samples out of 5 reaching target lethality (6 logs reduction): 5/5
Recipe 1: 100 Torr, NO2 10 mg/L, 75% RH, dwell 10 min, 2 pulses, 24 aerations, backstop 20, direct inoculation
  Spiked Backstop: samples out of 5 reaching target lethality (6 logs reduction): 1/5
Recipe 2: 300 Torr, NO2 10 mg/L, 75% RH, dwell 10 min, 2 pulses, 35 aerations, PFS with backstop 20
  Spiked Barrel: samples out of 5 reaching target lethality (6 logs reduction): 5/5
Recipe 2: 300 Torr, NO2 10 mg/L, 75% RH, dwell 10 min, 2 pulses, 35 aerations, backstop 20, direct inoculation
  Spiked Backstop: samples out of 5 reaching target lethality (6 logs reduction): 0/5
Recipe 3: 100 Torr, NO2 20 mg/L, 80% RH, dwell 20 min, 4 pulses, 24 aerations, PFS with backstop 20
  Spiked Barrel: samples out of 5 reaching target lethality (6 logs reduction): 5/5
Recipe 3: 100 Torr, NO2 20 mg/L, 80% RH, dwell 20 min, 4 pulses, 24 aerations, backstop 20, direct inoculation
  Spiked Backstop: samples out of 5 reaching target lethality (6 logs reduction): 0/5
Recipe 4: 20 Torr, NO2 10 mg/L, 80% RH, dwell 10 min, 4 pulses, 35 aerations, PFS with backstop 20
  Spiked Barrel: samples out of 5 reaching target lethality (6 logs reduction): 5/5
Recipe 4: 20 Torr, NO2 10 mg/L, 80% RH, dwell 10 min, 4 pulses, 35 aerations, backstop 20, direct inoculation
  Spiked Backstop: samples out of 5 reaching target lethality (6 logs reduction): 2/5
Recipe 5: 20 Torr, NO2 10 mg/L, 75% RH, dwell 10 min, 8 pulses, 28 aerations, PFS with alternative backstops
  Spiked Barrel: samples out of 5 reaching target lethality (6 logs reduction): 5/5
Recipe 5: 20 Torr, NO2 10 mg/L, 75% RH, dwell 10 min, 8 pulses, 28 aerations, alternative backstops, biological indicators
  Spiked Backstop: samples out of 5 reaching target lethality (6 logs reduction): 5/5
Recipe 6: 20 Torr, NO2 20 mg/L, 80% RH, dwell 20 min, 4 pulses, 24 aerations, alternative backstops, biological indicators
  Spiked Backstop: samples out of 5 reaching target lethality (6 logs reduction): 5/5
Recipe 7: 20 Torr, NO2 10 mg/L, 80% RH, dwell 20 min, 4 pulses, 24 aerations, alternative backstops, biological indicators
  Spiked Backstop: samples out of 5 reaching target lethality (6 logs reduction): 5/5
Recipe 8: 20 Torr, NO2 10 mg/L, 80% RH, dwell 10 min, 4 pulses, 24 aerations, alternative backstops, biological indicators
  Spiked Backstop: samples out of 5 reaching target lethality (6 logs reduction): 5/5
Recipe 9: 20 Torr, NO2 10 mg/L, 80% RH, dwell 10 min, 2 pulses, 24 aerations, alternative backstops, biological indicators
  Spiked Backstop: samples out of 5 reaching target lethality (6 logs reduction): 5/5
Recipe 10: 20 Torr, NO2 10 mg/L, 80% RH, dwell 10 min, 1 pulse, 24 aerations, PFS with alternative backstops
  Spiked Barrel: samples out of 5 reaching target lethality (6 logs reduction): 5/5
Recipe 10: 20 Torr, NO2 10 mg/L, 80% RH, dwell 10 min, 1 pulse, 24 aerations, alternative backstops, biological indicators
  Spiked Backstop: samples out of 5 reaching target lethality (6 logs reduction): 5/5
Recipe 11: 20 Torr, NO2 5 mg/L, 80% RH, dwell 10 min, 1 pulse, 24 aerations, PFS with alternative backstops
  Spiked Barrel: samples out of 5 reaching target lethality (6 logs reduction): 4/5
Recipe 11: 20 Torr, NO2 5 mg/L, 80% RH, dwell 10 min, 1 pulse, 24 aerations, alternative backstops, biological indicators
  Spiked Backstop: samples out of 5 reaching target lethality (6 logs reduction): 5/5
Recipe 12: 20 Torr, NO2 5 mg/L, 80% RH, dwell 10 min, 2 pulses, 24 aerations, PFS with alternative backstops
  Spiked Barrel: samples out of 5 reaching target lethality (6 logs reduction): 5/5
Recipe 12: 20 Torr, NO2 5 mg/L, 80% RH, dwell 10 min, 2 pulses, 24 aerations, alternative backstops, biological indicators
  Spiked Backstop: samples out of 5 reaching target lethality (6 logs reduction): 5/5
Recipe 13: 20 Torr, NO2 5 mg/L, 80% RH, dwell 5 min, 2 pulses, 24 aerations, PFS with alternative backstops
  Spiked Barrel: samples out of 5 reaching target lethality (6 logs reduction): 5/5
Recipe 13: 20 Torr, NO2 5 mg/L, 80% RH, dwell 5 min, 2 pulses, 24 aerations, alternative backstops, biological indicators
  Spiked Backstop: samples out of 5 reaching target lethality (6 logs reduction): 5/5
Recipe 15: 500 Torr, NO2 5 mg/L, 80% RH, dwell 5 min, 2 pulses, 70 aerations, PFS with alternative backstops
  Spiked Barrel: samples out of 5 reaching target lethality (6 logs reduction): 5/5
Recipe 15: 500 Torr, NO2 5 mg/L, 80% RH, dwell 5 min, 2 pulses, 70 aerations, alternative backstops, biological indicators
  Spiked Backstop: samples out of 5 reaching target lethality (6 logs reduction): 5/5
